Assay results taken from patent US7282589B2, “Acid addition salt of optically active piperidine compound and process for preparing the same” (UBE Industries, Ltd., priority 1996, dated 2007).
Read-outs that look alike come from different tables or passages of the source.

What was measured:
[1] = Stability test (40° C. and 75% relative humidity, one month); assay type: physicochemical; settings: for physicochemical stability (conclusion in words): from the test results of Table 4
Description: After pulverizing the above-mentioned respective compounds, powder passed through a 500 μm sieve was made to be a test sample. Respective samples were divided and placed in glass Petri dishes and preserved at 40° C. and 75% relative humidity. One month later, the samples were taken out, and a weight of contained analogues and a content of (R)-isomer by racemization were measured and compared with those at the beginning of the test.
The sample was dissolved in a mobile phase and the solution was adjusted so as to contain about 0.1% of the sample per ml. With regard to 25 μl of the sample solution, percentages of the respective peak area were measured by a liquid chromatography using an automatic integration method.
About 5 mg of the sample was dissolved in the mobile phase and the solution was adjusted so as to contain about 0.1% of the sample per ml. With regard to 1.5 μl of the sample solution, percentages of the respective peak area were measured by a liquid chromatography using an automatic integration method, and an amount of the (R)-isomer (%) was calculated by the following equation.
[formula] • Q^S: percentage of peak area of (S)-isomer • Q^R: percentage of peak area of (R)-isomer Operation Conditions

[2] = Experiment 1: crystallization of acid addition salts of (S)-piperidine compound (I); assay type: physicochemical
Description: (S)-Piperidine compound of the formula (I) was dissolved in an organic solvent, and after adding an acid shown in Table 3 to make a uniform solution, the mixture was allowed to stand. When no precipitate is obtained, after the solvent was removed, a less polar solvent was added to the residue and the mixture was allowed to stand again. Except for the case where the acid addition salt is oily or syrupy, the obtained solid material was collected by filtration and dried under reduced pressure.

[3] = Pharmacological effects of the metabolite compared with the (S)-ester
histamine-induced death = assay: Protective effects on histamine-induced death; assay type: in vivo, Hartley male guinea pigs; settings: for Survival ratio (%): p.o., 2 hours before 1.25 mg/kg histamine hydrochloride i.v.; for ED50: Cavia porcellus, po, obtained from the dose-response curve of Table 1
Description: By using Hartley male guinea pigs with a body weight of 250 to 550 g, protective effects on histamine-induced death were tested according to the method of Lands et al. (Journal of Pharmacological Experimental Therapy, vol. 95, p. 45, 1949 (A. M. Lands, J. O. Hoppe, O. H. Siegmund, and F. F. Luduena, J. Pharmacol. Exp. Ther., 95, 45 (1949))). Test animals were fasted overnight (about 14 hours), and then 5 ml/kg of a test substance was orally administrated. Two hours after administration of the test substance, 1.25 mg/kg of histamine hydrochloride was intravenously administrated to induce histamine shock. After induction, symptom of the test animals was observed and the histamine-shock appearing time was measured, and termination of respiration or restoration was also observed.

[4] = tested on: 7 days homologous PCA reaction; assay: Inhibitory effect on 7 days homologous PCA reaction; assay type: in vivo, Hartley male guinea pigs; settings: for Inhibitory ratio (%): p.o., 2 hours before antigen
Description: By using Hartley male guinea pigs with a body weight of 250 to 550 g, inhibitory effect on PCA reaction was tested according to the method of Levine et al. (Journal of Immunology, vol. 106, p. 29, 1971 (B. B. Levine, H. Chang, Jr., and N. M. Vaz, J. Immunol. 106, 29 (1971))). 0.05 ml of guinea pig anti-BPO.BGG-IgE serum diluted 32-fold with a physiological saline was hypodermically administrated to the guinea pig through two points of right and left sandwiching the median line of the back which had been shaved one day before.
After 7 days, 1 ml of a 1% Evans Blue physiological saline solution containing 500 μg of benzylpenicilloyl bovine serum albumin (BPO.BSA) was intravenously administrated to induce a PCA reaction. Thirty minutes later, exsanguination was carried out, and the skin was peeled off and the amount of the leaked dye was measured according to the method of Katayama et al. (Microbiological Immunology, vol. 22, p. 89, 1978 (S. Katayama, H. Shinoya and S. Ohtake, Microbiol. Immunol., 22, 89 (1978))). The test animals were fasted overnight (about 16 hours) and the test substances were orally administrated 2 hours before the administration of the antigen.

[5] = 1 month later, 40° C. and 75% relative humidity

O=C(O)CCCN1CCC(O[C@@H](c2ccc(Cl)cc2)c2ccccn2)CC1.O=C(O)c1ccccc1 [Benzoic acid salt, (S)-4-[4-[(4-chlorophenyl)(2-pyridyl)-methoxy]piperidino]butanoic acid monobenzoic acid salt]
Amount of moisture absorption [1, 5]: 0.05%
Content of (R)-isomer [1, 5]: 0.40%
Content of analogue substance [1, 5]: 1.20%
Content of (R)-isomer ([1]; Beginning): 0.37%
Content of analogue substance ([1]; Beginning): 1.20%
physicochemical stability (conclusion in words) [1]: excellent physicochemical stabilities
Characteristics of acid addition salt [2]: non-hygroscopic crystals

O=C(O)CCCN1CCC(O[C@@H](c2ccc(Cl)cc2)c2ccccn2)CC1.O=S(=O)(O)c1ccccc1 [Benzenesulfonic acid salt, (S)-4-[4-[(4-chlorophenyl)(2-pyridyl)-methoxy]piperidino]butanoic acid monobenzenesulfonic acid salt]
Amount of moisture absorption [1, 5]: 0.18%
Content of (R)-isomer [1, 5]: 0.39%
Content of analogue substance [1, 5]: 0.16%
Content of (R)-isomer ([1]; Beginning): 0.37%
Content of analogue substance ([1]; Beginning): 0.15%
physicochemical stability (conclusion in words) [1]: excellent physicochemical stabilities
Characteristics of acid addition salt [2]: non-hygroscopic crystals

O=C(O)CCCN1CCC(O[C@@H](c2ccc(Cl)cc2)c2ccccn2)CC1 [Example 1, (S)-4-[4-[(4-chlorophenyl)(2-pyridyl)-methoxy]piperidino]butanoic acid]
pharmacological effects compared with the (S)-ester [3]: substantially shows the same pharmacological effects as the (S)-ester

CCOC(=O)CCCN1CCC(O[C@H](c2ccc(Cl)cc2)c2ccccn2)CC1.O=C(O)/C=C/C(=O)O [(R)-ester, ethyl (R)-4-[4-[(4-chlorophenyl) (2-pyridyl)methoxy]piperidino]butanoate fumaric acid salt]
Survival ratio (%) (histamine-induced death; 0.3 mg/kg): 0%
Survival ratio (%) (histamine-induced death; 0.6 mg/kg): 0%
Survival ratio (%) (histamine-induced death; 1.0 mg/kg): 50.0%
Survival ratio (%) (histamine-induced death; 3.0 mg/kg): 62.5%
Survival ratio (%) (histamine-induced death; 10.0 mg/kg): 100%
ED50 (histamine-induced death): 1 mg/kg
Inhibitory ratio (%) ([4]; 0.3 mg/kg): −3.1%
Inhibitory ratio (%) ([4]; 1.0 mg/kg): 13.6%
Inhibitory ratio (%) ([4]; 3.0 mg/kg): 45.8%
Inhibitory ratio (%) ([4]; 10.0 mg/kg): 59.5%

C[C@H](O)C(=O)O [L-Lactic acid]
Characteristics of acid addition salt ([2]; acid molar ratio 1): Oily product

CCOC(=O)CCCN1CCC(O[C@@H](c2ccc(Cl)cc2)c2ccccn2)CC1.O=C(O)/C=C/C(=O)O [(S)-ester, ethyl (S)-4-[4-[(4-chlorophenyl)(2-pyridyl)methoxy]piperidino]butanoate fumaric acid salt]
Survival ratio (%) (histamine-induced death; 0.01 mg/kg): 0%
Survival ratio (%) (histamine-induced death; 0.02 mg/kg): 42.9%
Survival ratio (%) (histamine-induced death; 0.03 mg/kg): 62.5%
Survival ratio (%) (histamine-induced death; 0.06 mg/kg): 100%
Survival ratio (%) (histamine-induced death; 0.1 mg/kg): 100%
ED50 (histamine-induced death): 0.023 mg/kg
potency relative to the (R)-ester (histamine-induced death; ratio of ED50 values): about 43 fold
Inhibitory ratio (%) ([4]; 0.01 mg/kg): 37.3%
Inhibitory ratio (%) ([4]; 0.02 mg/kg): 46.3%
Inhibitory ratio (%) ([4]; 0.03 mg/kg): 56.9%
Inhibitory ratio (%) ([4]; 0.06 mg/kg): 63.4%
Inhibitory ratio (%) ([4]; 0.1 mg/kg): 58.8%
potency relative to the (R)-ester ([4]; compared at the dose which inhibits 50% of the maximum value (i.e., 35%)): ≥ 100 fold
Amount of moisture absorption [1, 5]: 0.45%
Content of (R)-isomer [1, 5]: 1.15%
Content of analogue substance [1, 5]: 2.65%
Content of (R)-isomer ([1]; Beginning): 0.87%
Content of analogue substance ([1]; Beginning): 1.72%
hygroscopicity (in words) ([1]; as shown in the stability test results (Table 4)): hygroscopic
physicochemical stability (conclusion in words) [1]: physicochemically unstable
